Results taken from article PMC3944524, “Antimicrobial Activity of the Marine Alkaloids, Clathrodin and Oroidin, and Their Synthetic Analogues” (Marine Drugs, 2014).
≈ marks a conversion by molar mass, not a printed value.

Key:
[1] = tested on: Enterococcus faecalis (ATCC 29212); assay: Broth microdilution antimicrobial assay, Enterococcus faecalis; type: cell-based; settings: for SI (selectivity index): E. faecalis MIC50 vs Huh-7 cytotoxicity IC50; for MIC90 / MIC50: Enterococcus faecalis; for MIC90: ATCC29212, 24 h; for MIC50: ATCC29212, E. faecalis ATCC 29212, 24 h, sigmoidal curve fitting
Method: (§1) Clinical control strains of Enterococcus faecalis (Gram-positive, ATCC 29212), Staphylococcus aureus (Gram-positive, ATCC 25923), Escherichia coli (Gram-negative, ATCC 25922) and a fungal strain, Candida albicans (ATCC 90028), were obtained from Microbiologics Inc. (St. Cloud, MN, USA) and used for the antimicrobial screening. Bacterial strains were grown on Mueller Hinton II agar (MHA, Becton Dickinson, Franklin Lakes, NJ, USA) […] Mueller Hinton II broth (MHB, Becton Dickinson, Franklin Lakes, NJ, USA) and the Candida strain on Sabouraud dextrose agar (SDA, Becton Dickinson, Franklin Lakes, NJ, USA) plates. Media were prepared in MilliQ water, according to the manufacturer's instructions, and autoclaved at 121 °C for 15 min. […] The Candida strain was grown on SDA plates at 28 °C for 18-24 h and suspended into sterile 0.9% saline for the assay. Antimicrobial assays were performed by the broth microdilution method following the guidelines of the Clinical and Laboratory Standards Institute (CLSI) and European Committee on Antimicrobial Susceptibility Testing (EUCAST). […] The Candida suspension was prepared in sterile 0.9% saline solution, and the suspension was diluted in RPMI-1640 media (with L-glutamine, without NaHCO3 and supplemented with 2% glucose and 0.165 M MOPS, buffered to pH 7; Lonza, Basel, Switzerland) to yield a final inoculum of 2.5 × 10^3 CFU/mL in the assay. Assays were carried out in clear 96-well microtiter plates and initiated by dispensing an equal volume of microbial suspension and sample solution diluted into the assay medium. The plates were incubated for 24 h at 37 °C (for Candida, the incubation was at 28 °C for 48 h) with agitation. […] The antimicrobial activity of the samples was calculated from the absorbance values by comparing to untreated controls and expressed as the percentage inhibition of growth. Reference antibiotics were used as positive controls on every assay plate (see Figure 2 for details). […] MIC50 values were determined from the dose-response results by sigmoidal curve fitting with Origin software (OriginLab, Corp., Wellesley Hills, MA, USA).

[2] = Mammalian cell cytotoxicity, ATP assay (CellTiter-Glo); type: cell-based, human; settings: human, Huh-7 cells, ATP assay, 24 h exposure, average of two dose-response experiments
Method: Huh-7 cells (originating from human hepatocellular carcinoma) were kindly provided by Prof. Ralf Bartenschlager (University of Heidelberg, Heidelberg, Germany). […] The cells were incubated at 37 °C in a humidified atmosphere with 5% CO2. The effect of the most promising compounds on the metabolic activity of Huh-7 hepatocytes was assessed by intracellular ATP quantitation (Promega’s CellTiter-Glo Cell Viability Assay, Madison, WI, USA). In brief, cells were seeded at 20,000 cells/well on white-walled 96-well microplates (ViewPlate, PerkinElmer Inc., Wellesley, MA, USA) and incubated at 37 °C, 5% CO2 and 95% humidity overnight and then exposed to the compounds for 24 h. Following the exposure, cells were washed with 100 µL PBS, and 50 µL of fresh assay media and 50 µL of the CellTiter-Glo reagent were added into the wells. After 2 min of shaking and 10 min incubation at rt, luminometric signal was measured using a Varioskan Flash plate reader (Thermo Fisher Scientific, Vantaa, Finland). […] The IC50 values were calculated by fitting the data into sigmoidal dose-response curves with the Origin software.

[3] = tested on: Staphylococcus aureus (ATCC 25923); assay: Broth microdilution antimicrobial assay, Staphylococcus aureus; type: cell-based; settings: for SI (selectivity index): S. aureus MIC50 vs Huh-7 cytotoxicity IC50; for MIC90 / MIC50: Staphylococcus aureus; for MIC90: ATCC25923, 24 h; for MIC50: ATCC25923, S. aureus ATCC 25923, 24 h, sigmoidal curve fitting
Method: as §1

[4] = tested on: Candida albicans (ATCC 90028); assay: Broth microdilution antifungal assay, Candida albicans; type: cell-based; settings: Candida albicans
Method: Clinical control strains of Enterococcus faecalis (Gram-positive, ATCC 29212), Staphylococcus aureus (Gram-positive, ATCC 25923), Escherichia coli (Gram-negative, ATCC 25922) and a fungal strain, Candida albicans (ATCC 90028), were obtained from Microbiologics Inc. (St. Cloud, MN, USA) and used for the antimicrobial screening. Bacterial strains were grown on Mueller Hinton II agar (MHA, Becton Dickinson, Franklin Lakes, NJ, USA) slants and Mueller Hinton II broth (MHB, Becton Dickinson, Franklin Lakes, NJ, USA) and the Candida strain on Sabouraud dextrose agar (SDA, Becton Dickinson, Franklin Lakes, NJ, USA) plates. Media were prepared in MilliQ water, according to the manufacturer’s instructions, and autoclaved at 121 °C for 15 min. Prior to the assay, bacterial suspensions were prepared in MHB from fresh slant cultures and incubated at 37 °C for 16–20 h at 100 rpm. The Candida strain was grown on SDA plates at 28 °C for 18–24 h and suspended into sterile 0.9% saline for the assay.
Antimicrobial assays were performed by the broth microdilution method following the guidelines of the Clinical and Laboratory Standards Institute (CLSI) and European Committee on Antimicrobial Susceptibility Testing (EUCAST). Bacterial suspensions were prepared as described above and diluted with MHB to obtain a final inoculum of 5 × 10^5 colony-forming units (CFU)/milliliters in the assay (determined on the basis of absorbance values at 620 nm previously calibrated against plate counts). The Candida suspension was prepared in sterile 0.9% saline solution, and the suspension was diluted in RPMI-1640 media (with L-glutamine, without NaHCO3 and supplemented with 2% glucose and 0.165 M MOPS, buffered to pH 7; Lonza, Basel, Switzerland) to yield a final inoculum of 2.5 × 10^3 CFU/mL in the assay. Assays were carried out in clear 96-well microtiter plates and initiated by dispensing an equal volume of microbial suspension and sample solution diluted into the assay medium. The plates were incubated for 24 h at 37 °C (for Candida, the incubation was at 28 °C for 48 h) with agitation. Absorbance was measured at 620 nm with a plate reader at 0, 4 and 24 h with the bacteria and at 0, 24 and 48 h with Candida. The antimicrobial activity of the samples was calculated from the absorbance values by comparing to untreated controls and expressed as the percentage inhibition of growth. Reference antibiotics were used as positive controls on every assay plate (see Figure 2 for details). […] MIC50 values were determined from the dose-response results by sigmoidal curve fitting with Origin software (OriginLab, Corp., Wellesley Hills, MA, USA).

melting point [°C] | MIC90 [3] [µM] | MIC50 [3] [µM] | Structure (SMILES) | IC50 at 24 h [2] [µM] | SI (selectivity index) [3] | further results
173 to 177 | – | – | COc1ccc2[nH]c(C(=O)Nc3cccc(-c4cn(C(=O)OC(C)(C)C)c(N)n4)c3)cc2c1 [Compound 5f, tert-Butyl 2-amino-4-(3-(5-methoxy-1H-indole-2-carboxamido)phenyl)-1H-imidazole-1-carboxylate] | – | – | –
185 to 187 | – | – | CC(C)(C)OC(=O)n1cc(-c2cccc(NC(=O)c3cc4cc(OC(F)(F)F)ccc4[nH]3)c2)nc1N [Compound 5g, tert-Butyl 2-amino-4-(3-(5-(trifluoromethoxy)-1H-indole-2-carboxamido)phenyl)-1H-imidazole-1-carboxylate] | – | – | –
140 to 143 | – | – | CC(C)(C)OC(=O)n1cc(-c2cccc(NC(=O)c3cc4cc(OCc5ccccc5)ccc4[nH]3)c2)nc1N [Compound 5h, tert-Butyl 2-amino-4-(3-(5-(benzyloxy)-1H-indole-2-carboxamido)phenyl)-1H-imidazole-1-carboxylate] | – | – | –
189 to 192 | – | – | CC(C)(C)OC(=O)n1cc(-c2cccc(NC(=O)c3cc4cc(F)ccc4[nH]3)c2)nc1N [Compound 5j, tert-Butyl 2-amino-4-(3-(5-fluoro-1H-indole-2-carboxamido)phenyl)-1H-imidazole-1-carboxylate] | – | – | –
178 to 180 | – | – | CC(C)(C)OC(=O)n1cc(-c2cccc(NC(=O)c3cc4sccc4[nH]3)c2)nc1N [Compound 5k, tert-Butyl 4-(3-(4H-thieno[3,2-b]pyrrole-5-carboxamido)phenyl)-2-amino-1H-imidazole-1-carboxylate] | – | – | –
– | 50 (≈ 15.9 µg/mL) | 29.4 (≈ 9.33 µg/mL) | Nc1nc(-c2cccc(NC(=O)c3cc4ccccc4[nH]3)c2)c[nH]1 [Compound 6d] | 42.3 | 1.4 | SI (selectivity index) [1]: 1.2; MIC90 [1]: 50 µM (≈ 15.9 µg/mL); MIC50 [1]: 34 µM (≈ 10.8 µg/mL)
237 to 241 | 50 | 11.9 | COc1ccc2[nH]c(C(=O)Nc3cccc(-c4c[nH]c(N)n4)c3)cc2c1.Cl [Compound 6f, 2-Amino-4-(3-(5-methoxy-1H-indole-2-carboxamido)phenyl)-1H-imidazol-3-ium chloride] | 32.2 | 2.7 | –
255 to 260 | – | – | Cl.Nc1nc(-c2cccc(NC(=O)c3cc4cc(OC(F)(F)F)ccc4[nH]3)c2)c[nH]1 [Compound 6g, 2-Amino-4-(3-(5-(trifluoromethoxy)-1H-indole-2-carboxamido)phenyl)-1H-imidazol-3-ium chloride] | – | – | –
201 to 204 | 50 | 7.2 | Cl.Nc1nc(-c2cccc(NC(=O)c3cc4cc(Cl)ccc4[nH]3)c2)c[nH]1 [Compound 6i, 2-Amino-4-(3-(5-chloro-1H-indole-2-carboxamido)phenyl)-1H-imidazol-3-ium chloride] | 21.7 | 3.0 | –
202 to 205 | 50 | 22.1 | Cl.Nc1nc(-c2cccc(NC(=O)c3cc4cc(F)ccc4[nH]3)c2)c[nH]1 [Compound 6j, 2-Amino-4-(3-(5-fluoro-1H-indole-2-carboxamido)phenyl)-1H-imidazol-3-ium chloride] | 19.8 | 0.9 | SI (selectivity index) [1]: 0.7; MIC90 [1]: 100 µM; MIC50 [1]: 27.3 µM
198 to 202 | 100 | 27.1 | Cl.Nc1nc(-c2cccc(NC(=O)c3cc4sccc4[nH]3)c2)c[nH]1 [Compound 6k, 4-(3-(4H-Thieno[3,2-b]pyrrole-5-carboxamido)phenyl)-2-amino-1H-imidazol-3-ium chloride] | 53.6 | 2.0 | –
– | 75 (≈ 24.9 µg/mL) | 10.8 (≈ 3.58 µg/mL) | CNc1nc(-c2cccc(NC(=O)c3cc4ccccc4[nH]3)c2)c[nH]1 [Compound 6l] | 52.3 | 4.9 | SI (selectivity index) [1]: 1.0; MIC90 [1]: 100 µM (≈ 33.1 µg/mL); MIC50 [1]: 54.2 µM (≈ 18 µg/mL)
192 to 196 | 100 (≈ 43.3 µg/mL) | 11.6 (≈ 5.03 µg/mL) | CC(C)(C)OC(=O)n1cc(-c2cccc(NC(=O)c3cc4cc(O)ccc4[nH]3)c2)nc1N [Compound 7, tert-Butyl 2-Amino-4-(3-(5-hydroxy-1H-indole-2-carboxamido)phenyl)-1H-imidazole-1-carboxylate] | 94 | – | –
248 to 252 | 100 | 40.5 | Cl.Nc1nc(-c2cccc(NC(=O)c3cc4cc(O)ccc4[nH]3)c2)c[nH]1 [Compound 8, 2-Amino-4-(3-(5-hydroxy-1H-indole-2-carboxamido)phenyl)-1H-imidazol-3-ium chloride] | > 100 | >2.5 | –
229 to 232 | – | – | Nc1nc(-c2cccc(NC(=O)c3ccc[nH]3)c2)cn1Cc1ccccc1 [Compound 15, N-(3-(2-Amino-1-benzyl-1H-imidazol-4-yl)phenyl)-1H-pyrrole-2-carboxamide] | – | – | –
165 to 168 | – | – | Nc1nc(-c2cccc(NCc3ccc[nH]3)c2)cn1Cc1ccccc1 [Compound 16, 4-(3-(((1H-Pyrrol-2-yl)methyl)amino)phenyl)-1-benzyl-1H-imidazol-2-amine] | – | – | –
– | – | – | C[C@@H]1[C@H](O)[C@@H](C)/C=C/C=C/C=C/C=C/C=C/C=C/C=C/[C@H](O[C@@H]2O[C@H](C)[C@@H](O)[C@H](N)[C@@H]2O)C[C@@H]2O[C@](O)(C[C@@H](O)C[C@@H](O)[C@H](O)CC[C@@H](O)C[C@@H](O)CC(=O)O[C@H]1C)C[C@H](O)[C@H]2C(=O)O [amphotericin B, reference compound] | – | – | MIC90 ([4]; ATCC90028, 48 h): 0.5 µM; MIC90 ([4]; ATCC90028, C. albicans ATCC 90028, 48 h): 0.5 µg/mL
